{"source": "PubChem BioAssay (NCI)", "assay_in_all_cases": "NCI-60 cell line screen, 48 h", "key": {"[1]": {"test_system": "EKVX NSCLC"}, "[2]": {"test_system": "SK-MEL-2 melanoma"}, "[3]": {"test_system": "SK-MEL-28 melanoma"}, "[4]": {"test_system": "SNB-75 CNS"}, "[5]": {"test_system": "HS 578T breast"}, "[6]": {"test_system": "NCI-H23 lung"}, "[7]": {"test_system": "NCI-H226 lung"}, "[8]": {"test_system": "HT29 colon"}, "[9]": {"test_system": "MCF7 breast"}, "[10]": {"test_system": "NCI-H522 lung"}, "[11]": {"test_system": "HCT-116 colon"}, "[12]": {"test_system": "K-562 leukemia"}, "[13]": {"test_system": "SN12C renal"}, "[14]": {"test_system": "SF-539 CNS"}, "[15]": {"test_system": "SW-620 colon"}, "[16]": {"test_system": "KM12 colon"}, "[17]": {"test_system": "OVCAR-8 ovarian"}, "[18]": {"test_system": "DU-145 prostate"}, "[19]": {"test_system": "SK-OV-3 ovarian"}, "[20]": {"test_system": "OVCAR-4 ovarian"}, "[21]": {"test_system": "TK-10 renal"}, "[22]": {"test_system": "OVCAR-5 ovarian"}, "[23]": {"test_system": "NCI/ADR-RES ovarian"}, "[24]": {"test_system": "T-47D breast"}, "[25]": {"test_system": "HOP-92 NSCLC"}, "[26]": {"test_system": "COLO 205 colon"}, "[27]": {"test_system": "SF-268 CNS"}, "[28]": {"test_system": "MDA-N"}, "[29]": {"test_system": "MOLT-4 leukemia"}, "[30]": {"test_system": "CCRF-CEM leukemia"}, "[31]": {"test_system": "RPMI-8226 leukemia"}, "[32]": {"test_system": "IGROV1 ovarian"}, "[33]": {"test_system": "A498 renal"}, "[34]": {"test_system": "MDA-MB-435"}, "[35]": {"test_system": "RXF 393 renal"}, "[36]": {"test_system": "UACC-257 melanoma"}, "[37]": {"test_system": "M14 melanoma"}, "[38]": {"test_system": "786-0 renal"}, "[39]": {"test_system": "NCI-H460 lung"}, "[40]": {"test_system": "U251 CNS"}, "[41]": {"test_system": "HOP-62 NSCLC"}, "[42]": {"test_system": "ACHN renal"}, "[43]": {"test_system": "SF-295 CNS"}, "[44]": {"test_system": "LOX IMVI melanoma"}, "[45]": {"test_system": "OVCAR-3 ovarian"}, "[46]": {"test_system": "HCT-15 colon"}, "[47]": {"test_system": "SK-MEL-5 melanoma"}, "[48]": {"test_system": "PC-3 prostate"}, "[49]": {"test_system": "CAKI-1 renal"}, "[50]": {"test_system": "HL-60(TB) leukemia"}, "[51]": {"test_system": "SNB-19 CNS"}, "[52]": {"test_system": "BT-549 breast"}, "[53]": {"test_system": "A549 NSCLC"}, "[54]": {"test_system": "MDA-MB-231 breast"}, "[55]": {"test_system": "MALME-3M melanoma"}, "[56]": {"test_system": "UACC-62 melanoma"}}, "note": "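All cell lines were grown in 96-well plates and treated with compound for 48 hours. The concentration for full growth arrest is given as TGI.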", "data": [{"compound": "Oc1nc(N/N=C/c2c[nH]c3ccccc23)[nH]c1/C=C1\\C=Nc2ccccc21", "values": [{"measurement": "TGI", "setting": "[1]", "value": 89.6, "unit": "µM"}, {"measurement": "TGI", "setting": "[2]", "value": 36.5, "unit": "µM"}, {"measurement": "TGI", "setting": "[3]", "value": 54.1, "unit": "µM"}, {"measurement": "TGI", "setting": "[4]", "value": 78, "unit": "µM"}, {"measurement": "TGI", "setting": "[5]", "value": 40.6, "unit": "µM"}, {"measurement": "TGI", "setting": "[6]", "value": 38.5, "unit": "µM"}, {"measurement": "TGI", "setting": "[7]", "value": 34.4, "unit": "µM"}, {"measurement": "TGI", "setting": "[8]", "value": 47.5, "unit": "µM"}, {"measurement": "TGI", "setting": "[9]", "value": 29.5, "unit": "µM"}, {"measurement": "TGI", "setting": "[10]", "value": 24.2, "unit": "µM"}, {"measurement": "TGI", "setting": "[11]", "value": 36.7, "unit": "µM"}, {"measurement": "TGI", "setting": "[12]", "value": 27.8, "unit": "µM"}, {"measurement": "TGI", "setting": "[13]", "value": "> 100", "unit": "µM"}, {"measurement": "TGI", "setting": "[14]", "value": 48.4, "unit": "µM"}, {"measurement": "TGI", "setting": "[15]", "value": 35.8, "unit": "µM"}, {"measurement": "TGI", "setting": "[16]", "value": 44.8, "unit": "µM"}, {"measurement": "TGI", "setting": "[17]", "value": 29.2, "unit": "µM"}, {"measurement": "TGI", "setting": "[18]", "value": "> 100", "unit": "µM"}, {"measurement": "TGI", "setting": "[19]", "value": "> 100", "unit": "µM"}, {"measurement": "TGI", "setting": "[20]", "value": 86.1, "unit": "µM"}, {"measurement": "TGI", "setting": "[21]", "value": "> 100", "unit": "µM"}, {"measurement": "TGI", "setting": "[22]", "value": "> 100", "unit": "µM"}, {"measurement": "TGI", "setting": "[23]", "value": 84.5, "unit": "µM"}, {"measurement": "TGI", "setting": "[24]", "value": 36.5, "unit": "µM"}, {"measurement": "TGI", "setting": "[25]", "value": 36.9, "unit": "µM"}, {"measurement": "TGI", "setting": "[26]", "value": 26.7, "unit": "µM"}, {"measurement": "TGI", "setting": "[27]", "value": 43.1, "unit": "µM"}, {"measurement": "TGI", "setting": "[28]", "value": "> 100", "unit": "µM"}, {"measurement": "TGI", "setting": "[29]", "value": 22.3, "unit": "µM"}, {"measurement": "TGI", "setting": "[30]", "value": 25.3, "unit": "µM"}, {"measurement": "TGI", "setting": "[31]", "value": 25.5, "unit": "µM"}, {"measurement": "TGI", "setting": "[32]", "value": 41.2, "unit": "µM"}, {"measurement": "TGI", "setting": "[33]", "value": 27.8, "unit": "µM"}, {"measurement": "TGI", "setting": "[34]", "value": 62.4, "unit": "µM"}, {"measurement": "TGI", "setting": "[35]", "value": "> 100", "unit": "µM"}, {"measurement": "TGI", "setting": "[36]", "value": 79.4, "unit": "µM"}, {"measurement": "TGI", "setting": "[37]", "value": 75.9, "unit": "µM"}, {"measurement": "TGI", "setting": "[38]", "value": 37, "unit": "µM"}, {"measurement": "TGI", "setting": "[39]", "value": "> 100", "unit": "µM"}, {"measurement": "TGI", "setting": "[40]", "value": 32.3, "unit": "µM"}, {"measurement": "TGI", "setting": "[41]", "value": 80.9, "unit": "µM"}, {"measurement": "TGI", "setting": "[42]", "value": 49.1, "unit": "µM"}, {"measurement": "TGI", "setting": "[43]", "value": 40.9, "unit": "µM"}, {"measurement": "TGI", "setting": "[44]", "value": 31.1, "unit": "µM"}, {"measurement": "TGI", "setting": "[45]", "value": 29.6, "unit": "µM"}, {"measurement": "TGI", "setting": "[46]", "value": 61, "unit": "µM"}, {"measurement": "TGI", "setting": "[47]", "value": 38.1, "unit": "µM"}, {"measurement": "TGI", "setting": "[48]", "value": 32, "unit": "µM"}, {"measurement": "TGI", "setting": "[49]", "value": "> 100", "unit": "µM"}, {"measurement": "TGI", "setting": "[50]", "value": 32.9, "unit": "µM"}, {"measurement": "TGI", "setting": "[51]", "value": "> 100", "unit": "µM"}, {"measurement": "TGI", "setting": "[52]", "value": 60.3, "unit": "µM"}, {"measurement": "TGI", "setting": "[53]", "value": 42.3, "unit": "µM"}, {"measurement": "TGI", "setting": "[54]", "value": 43.2, "unit": "µM"}, {"measurement": "TGI", "setting": "[55]", "value": 33.8, "unit": "µM"}, {"measurement": "TGI", "setting": "[56]", "value": 37.7, "unit": "µM"}]}]}
